# Values joined by “and” are separate entries in the source; they are usually repeats but may differ in a detail not shown here. Identical values can stand only once.
# Key:
# Assay type in all cases: physicochemical
# [1] = λmax of the long-wave absorption band of the dye; details: Table 7; two values = two maxima
# Experimental: A weighed sample of one or several anthraquinone derivatives of general formula /1/ is dissolved upon heating to 60° C. in a liquid-crystalmatrix and then cooled to 20° C.
# [2] = limiting solubility in liquid-crystalline mixtures at 20° C.; details: for Solubility (limiting), known derivatives: Table 6, derivatives of SU 1089084
# [3] = λmax of the long-wave absorption band of the dye; details: Table 1 / Examples; several values = several maxima
# Experimental: (§1) Table 1 given below lists the values of negative dichroism of the anthraquinone derivative of general formula /1/ for examples 1-30 in a liquid-crystalline mixture ZK-807; Table 2 illustrates physico-chemical characteristics, and Table 3--limiting solubility in liquid-crystalline mixtures (ZK-807, ZLI-1840, 3010, SP-586, ZK-1282) at 20° C.
# [4] = negative dichroism S in a liquid-crystalline mixture; details: liquid-crystalline mixture ZK-807
# Experimental: as §1
Compound,"λmax, known derivatives [1] [nm]","Solubility (limiting), known derivatives ([2]; ZK-807, 20° C.) [mass %]","Solubility (limiting), known derivatives ([2]; ZLI-1840, 20° C.) [mass %]","Solubility (limiting) ([2]; 3010, 20° C.) [mass %]","Solubility (limiting) ([2]; SP-586, 20° C.) [mass %]","Solubility (limiting) ([2]; ZK-807, 20° C.) [mass %]","Solubility (limiting) ([2]; ZLI-1840, 20° C.) [mass %]",λmax [3],negative dichroism S [4],"Solubility (limiting) ([2]; ZK-1282, 20° C.) [mass %]","solubility exceeds the solubility of the known analogue ([2]; ratio to known derivative, No. 2, 7 and 6 of Table 3 vs No. 1, 5 and 6 of Table 6) [times]"
"CCCCCC1CCC(c2ccc(C(=O)Nc3ccc(O)c4c3C(=O)c3c(NC(=O)c5ccc(C6CCC(CCCCC)CC6)cc5)ccc(OC(=O)c5ccc(C6CCC(CCCCC)CC6)cc5)c3C4=O)cc2)CC1 (centres unmarked) [No. 10, Table 6, reference compound]",554,0.2,0.6,–,–,–,–,–,–,–,–
"CCCCc1ccc(C(=O)Nc2ccc(OC(=O)c3ccc(CCCC)cc3)c3c2C(=O)c2c(NC(=O)c4ccc(CCCC)cc4)ccc(OC(=O)c4ccc(CCCC)cc4)c2C3=O)cc1 [No. 6, Table 6, reference compound]",470,0.5,–,–,–,–,–,–,–,–,–
"CCCCc1ccc(C(=O)Nc2ccc(O)c3c2C(=O)c2c(NC(=O)c4ccc(CCCC)cc4)ccc(OC(=O)c4ccc(CCCC)cc4)c2C3=O)cc1 [No. 8, Table 6, reference compound]",535,1.0,0.3,–,–,–,–,–,–,–,–
"CCCCCCc1ccc(C(=O)Nc2ccc(NC(=O)c3ccc(CCCCCC)cc3)c3c2C(=O)c2ccccc2C3=O)cc1 [No. 4, Table 6, reference compound]",512,2.3,0.6,–,–,–,–,–,–,–,–
"CCCCc1ccc(C(=O)Nc2ccc(NC(=O)c3ccc(CCCC)cc3)c3c2C(=O)c2ccccc2C3=O)cc1 [No. 3, Table 6, reference compound]",508,2.0,0.3,–,–,–,–,–,–,–,–
"CCCCc1ccc(C(=O)Nc2ccc(OC(=O)c3ccc(CCCC)cc3)c3c2C(=O)c2c(NC(=O)c4ccc(CCCC)cc4)cc(C)c(OC(=O)c4ccc(CCCC)cc4)c2C3=O)cc1 [Compound 3, 1,8Bis-(4-butylbenzamido)-4,5-bis-(4-butylbenzoyloxy)-3-methylanthraquinone]",–,–,–,1.1,2.0,5.0,1.0,465 nm,-0.34,–,–
CCCCCCC1CCC(c2ccc(C(=O)Nc3cc(CCCC)c(O)c4c3C(=O)c3c(NC(=O)c5ccc(C6CCC(CCCCCC)CC6)nc5Cl)cc(CCCC)c(OC(=O)c5ccc(C6CCC(CCCCCC)CC6)nc5Cl)c3C4=O)c(Cl)n2)CC1 (centres unmarked) [Compound 20],–,–,–,0.75,–,1.2,0.7,534 nm,-0.33,–,–
"CCCCCCc1ccc(C(=O)Nc2ccc(OC(=O)c3ccc(CCCCCC)cc3)c3c2C(=O)c2c(NC(=O)c4ccc(CCCCCC)cc4)ccc(OC(=O)c4ccc(CCCCCC)cc4)c2C3=O)cc1 [No. 5, Table 6, reference compound]",468,0.5,0.1,–,–,–,–,–,–,–,–
"CCCCc1ccc(C(=O)Nc2ccc(O)c3c2C(=O)c2c(NC(=O)c4ccc(CCCC)cc4)ccc(O)c2C3=O)cc1 [No. 7, Table 6, reference compound]",560,0.1,–,–,–,–,–,–,–,–,–
"CCCCC[C@H]1CC[C@H](c2ccc(C(=O)Nc3ccc(O)c4c3C(=O)c3c(NC(=O)c5ccc([C@H]6CC[C@H](CCCCC)CC6)cc5)cc(C)c(O)c3C4=O)cc2)CC1 [Compound 27, 1,8-Bis-4-(trans-4-amylcyclohexyl)benzamido-3-methyl-4,5-dioxyanthraquinone]",–,–,–,1.0,–,1.0,1.0,562 nm and 603 nm,-0.33,1.0,–
CCCCCC1CCC(c2ccc(C(=O)Nc3cc(CCCC)c(O)c4c3C(=O)c3c(OC(=O)c5ccc(C6CCC(CCCCC)CC6)cc5)c(CCCC)cc(NC(=O)c5ccc(C6CCC(CCCCC)CC6)cc5)c3C4=O)cc2)CC1 (centres unmarked) [Compound 24],–,–,–,6.0,–,6.0,5.5,563 nm and 617 nm,-0.33,–,–
"CCCCCCc1ccc(C(=O)Nc2ccc(O)c3c2C(=O)c2c(NC(=O)c4ccc(CCCCCC)cc4)ccc(O)c2C3=O)cc1 [No. 9, Table 6, reference compound]",562,0.1,–,–,–,–,–,–,–,–,–
CCCCCCc1ccc(C(=O)Nc2cc(CCCC)c(OC(=O)c3ccc(CCCCCC)cc3)c3c2C(=O)c2c(NC(=O)c4ccc(CCCCCC)cc4)cc(CCCC)c(OC(=O)c4ccc(CCCCCC)cc4)c2C3=O)cc1 [Compound 7],–,–,–,–,–,5.0,–,434 nm and 455 nm,-0.26,–,10
CCCCc1cc(NC(=O)c2ccc(C3CCC(CCCC)CC3)cc2)c2c(c1OC(=O)CCC)C(=O)c1c(OC(=O)CCC)c(CCCC)cc(NC(=O)c3ccc(C4CCC(CCCC)CC4)cc3)c1C2=O (centres unmarked) [Compound 13],–,–,–,1.75,–,4.9,2.1,470 nm,-0.37,–,–
CCCCCCC1CCC(C(=O)Nc2ccc(OC(=O)C3CCC(CCCCCC)CC3)c3c2C(=O)c2c(NC(=O)C4CCC(CCCCCC)CC4)cc(C)c(OC(=O)C4CCC(CCCCCC)CC4)c2C3=O)CC1 (centres unmarked) [Compound 5],–,–,–,1.0,–,3.0,–,461 nm,-0.37,–,–
CCCCCC1CCC(c2ccc(C(=O)Nc3ccc(OC(=O)c4ccc(C5CCC(CCCCC)CC5)cc4)c4c3C(=O)c3c(NC(=O)c5ccc(C6CCC(CCCCC)CC6)cc5)cc(C)c(OC(=O)c5ccc(C6CCC(CCCCC)CC6)cc5)c3C4=O)cc2)CC1 (centres unmarked) [Compound 4],–,–,–,3.0,1.9,1.0,1.5,468 nm,-0.36,–,–

# Source: US4933104A, “Anthraquinone derivative as a dichroic dye for a liquid-crystal material, liquid-crystal material and an electrooptical device” (priority 1986, dated 1990)
